Measured values as given in PubChem BioAssay AID248 (DTP/NCI, 2004).
Values joined by “and” are separate entries in the source; they are usually repeats but may differ in a detail not shown here. Identical values can stand only once. Inconclusive results and toxic doses are left out. Rule as the data show it: active = T/C of 150% or more; inactive = T/C below 125%.

Tested on: L1210 leukemia ip in BDF1 mice, survival T/C
Experiment: NCI In Vivo Anticancer Drug Screen. Data for tumor model L1210 Leukemia (intraperitoneal) in B6D2F1 (BDF1) mice
Conditions: endpoint: mean survival time, higher = longer survival
How it was run: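 Ratio derived from survival: compound-dosed mice over vehicle-dosed mice, all bearing a transplantable tumor.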

[1] = dose: 100.0 mg/kg/injection, schedule: Q01DX001 (ip), vehicle: saline
[2] = dose: 200.0 mg/kg/injection, schedule: Q01DX001 (ip), vehicle: saline
[3] = dose: 400.0 mg/kg/injection, schedule: Q01DX001 (ip), vehicle: saline

Measured: T/C

c1ccc(CSC(Cc2ccccc2)(SCc2ccccc2)c2ccccc2)cc1
inactive: dose: 50.0 mg/kg/injection, schedule: Q01DX001 (ip), vehicle: saline 102 % of control | [1] 104 % of control | [2] 98 % of control | [3] 104 % of control

C/C(=N\O)C(C)C
inactive: dose: 100.0 mg/kg/injection, schedule: Q01DX001 (ip), vehicle: saline with Tween-80 93 % of control | dose: 100.0 mg/kg/injection, schedule: Q01DX009 (ip), vehicle: saline with Tween-80 100 % of control | dose: 200.0 mg/kg/injection, schedule: Q01DX001 (ip), vehicle: saline with Tween-80 101 % of control | dose: 200.0 mg/kg/injection, schedule: Q01DX009 (ip), vehicle: saline with Tween-80 98 % of control | dose: 400.0 mg/kg/injection, schedule: Q01DX001 (ip), vehicle: saline with Tween-80 98 % of control | dose: 400.0 mg/kg/injection, schedule: Q01DX009 (ip), vehicle: saline with Tween-80 92 % of control

COc1cc(OC)c(/C=C/c2ccc3ccccc3[n+]2C)c(OC)c1
inactive: dose: 0.5 mg/kg/injection, schedule: Q01DX009 (oral), vehicle: carboxymethylcellulose (CMC) 104 % of control | dose: 1.0 mg/kg/injection, schedule: Q01DX009 (oral), vehicle: carboxymethylcellulose (CMC) 103 % of control | dose: 2.0 mg/kg/injection, schedule: Q01DX009 (oral), vehicle: carboxymethylcellulose (CMC) 111 % of control | dose: 4.0 mg/kg/injection, schedule: Q01DX009 (oral), vehicle: carboxymethylcellulose (CMC) 103 % of control | dose: 8.0 mg/kg/injection, schedule: Q01DX009 (oral), vehicle: carboxymethylcellulose (CMC) 103 % of control | dose: 31.3 micrograms/kg/injection, schedule: Q04DX003 (ip), vehicle: saline 100 % of control | dose: 62.5 micrograms/kg/injection, schedule: Q04DX003 (ip), vehicle: saline 101 % of control | dose: 125.0 micrograms/kg/injection, schedule: Q04DX003 (ip), vehicle: saline 95 % of control

Nc1cn(C2OC(CO)C(O)C2O)c(=O)[nH]c1=O (stereo not given)
inactive: [1] 97 % of control | [2] 124 % of control | [3] 100 % of control

CSc1ncnc2c1ncn2N1CCCC1COS(=O)(=O)c1ccc(C)cc1 (stereo not given)
inactive: dose: 100.0 mg/kg/injection, schedule: Q01DX001 (ip), vehicle: DMSO 96 % of control | dose: 200.0 mg/kg/injection, schedule: Q01DX001 (ip), vehicle: DMSO 90 % of control | dose: 400.0 mg/kg/injection, schedule: Q01DX001 (ip), vehicle: DMSO 95 % of control

CCCOC1=C(N2CC2)C(=O)C(OCCC)=C(N2CC2)C1=O
inactive: dose: 0.23 mg/kg/injection, schedule: Q01DX009 (ip), vehicle: Klucel (hydroxypropylcellulose) (HPC) 103 % of control | dose: 0.46 mg/kg/injection, schedule: Q01DX009 (ip), vehicle: Klucel (hydroxypropylcellulose) (HPC) 107 % of control | dose: 0.62 mg/kg/injection, schedule: Q#A X Z (ip), vehicle: alkali diluted with saline 113 % of control | dose: 0.93 mg/kg/injection, schedule: Q01DX009 (ip), vehicle: Klucel (hydroxypropylcellulose) (HPC) 108 % of control | dose: 1.25 mg/kg/injection, schedule: Q01DX006 (iv), vehicle: alkali diluted with saline 113 % of control | dose: 1.25 mg/kg/injection, schedule: Q01DX Z (im), vehicle: alkali diluted with saline 113 % of control | dose: 1.25 mg/kg/injection, schedule: Q01DX Z (ip), vehicle: alkali diluted with saline 104 % of control | dose: 1.25 mg/kg/injection, schedule: Q01DX Z (sc), vehicle: alkali diluted with saline 113 % of control | dose: 1.25 mg/kg/injection, schedule: Q#A X Z (ip), vehicle: alkali diluted with saline 121 % of control | dose: 1.87 mg/kg/injection, schedule: Q01DX009 (ip), vehicle: Klucel (hydroxypropylcellulose) (HPC) 114 % of control | dose: 1.87 mg/kg/injection, schedule: Q04DX003 (ip), vehicle: Klucel (hydroxypropylcellulose) (HPC) 106 % of control | dose: 2.5 mg/kg/injection, schedule: Q01DX006 (iv), vehicle: alkali diluted with saline 109 % of control | dose: 2.5 mg/kg/injection, schedule: Q01DX Z (im), vehicle: alkali diluted with saline 122 % of control | dose: 2.5 mg/kg/injection, schedule: Q01DX Z (sc), vehicle: alkali diluted with saline 110 % of control | dose: 3.0 mg/kg/injection, schedule: Q03DX006 (ip), vehicle: alkali diluted with saline 107 % of control | dose: 3.75 mg/kg/injection, schedule: Q01DX009 (ip), vehicle: Klucel (hydroxypropylcellulose) (HPC) 122 % of control | dose: 3.75 mg/kg/injection, schedule: Q04DX003 (ip), vehicle: Klucel (hydroxypropylcellulose) (HPC) 118 % of control | dose: 5.0 mg/kg/injection, schedule: Q01DX006 (iv), vehicle: alkali diluted with saline 122 % of control | dose: 5.0 mg/kg/injection, schedule: Q01DX Z (oral), vehicle: alkali diluted with saline 113 % of control | dose: 7.0 mg/kg/injection, schedule: Q03DX006 (ip), vehicle: alkali diluted with saline 115 % of control | dose: 10.0 mg/kg/injection, schedule: Q01DX001 (ip), vehicle: alkali diluted with saline 112 % of control | dose: 10.0 mg/kg/injection, schedule: Q01DX006 (iv), vehicle: alkali diluted with saline 115 % of control | dose: 10.0 mg/kg/injection, schedule: Q01DX Z (oral), vehicle: alkali diluted with saline 115 % of control | dose: 10.0 mg/kg/injection, schedule: Q07DX003 (ip), vehicle: alkali diluted with saline 96 % of control | dose: 20.0 mg/kg/injection, schedule: Q01DX001 (ip), vehicle: alkali diluted with saline 104 % of control and 115 % of control | dose: 20.0 mg/kg/injection, schedule: Q01DX006 (iv), vehicle: alkali diluted with saline 103 % of control | dose: 20.0 mg/kg/injection, schedule: Q01DX Z (im), vehicle: alkali diluted with saline 94 % of control | dose: 20.0 mg/kg/injection, schedule: Q01DX Z (sc), vehicle: alkali diluted with saline 120 % of control | dose: 20.0 mg/kg/injection, schedule: Q07DX003 (ip), vehicle: alkali diluted with saline 106 % of control | dose: 20.0 mg/kg/injection, schedule: Q#A X Z (ip), vehicle: alkali diluted with saline 103 % of control | dose: 30.0 mg/kg/injection, schedule: Q03DX006 (ip), vehicle: alkali diluted with saline 117 % of control | dose: 30.0 mg/kg/injection, schedule: Q04DX003 (ip), vehicle: Klucel (hydroxypropylcellulose) (HPC) 102 % of control | dose: 40.0 mg/kg/injection, schedule: Q01DX001 (ip), vehicle: alkali diluted with saline 118 % of control | dose: 40.0 mg/kg/injection, schedule: Q01DX006 (iv), vehicle: alkali diluted with saline 123 % of control | dose: 40.0 mg/kg/injection, schedule: Q01DX Z (im), vehicle: alkali diluted with saline 121 % of control | dose: 40.0 mg/kg/injection, schedule: Q01DX Z (ip), vehicle: alkali diluted with saline 106 % of control | dose: 40.0 mg/kg/injection, schedule: Q01DX Z (sc), vehicle: alkali diluted with saline 113 % of control | dose: 40.0 mg/kg/injection, schedule: Q07DX003 (ip), vehicle: alkali diluted with saline 124 % of control | dose: 80.0 mg/kg/injection, schedule: Q01DX001 (ip), vehicle: alkali diluted with saline 124 % of control | dose: 80.0 mg/kg/injection, schedule: Q01DX Z (oral), vehicle: alkali diluted with saline 122 % of control | dose: 125.0 mg/kg/injection, schedule: Q01DX001 (ip), vehicle: alkali diluted with saline 103 % of control | dose: 160.0 mg/kg/injection, schedule: Q01DX001 (ip), vehicle: alkali diluted with saline 115 % of control and 121 % of control | dose: 160.0 mg/kg/injection, schedule: Q07DX003 (ip), vehicle: alkali diluted with saline 111 % of control | dose: 320.0 mg/kg/injection, schedule: Q01DX001 (ip), vehicle: alkali diluted with saline 107 % of control and 113 % of control | dose: 320.0 mg/kg/injection, schedule: Q07DX003 (ip), vehicle: alkali diluted with saline 111 % of control | dose: 500.0 mg/kg/injection, schedule: Q01DX001 (ip), vehicle: alkali diluted with saline 102 % of control | dose: 640.0 mg/kg/injection, schedule: Q07DX003 (ip), vehicle: alkali diluted with saline 123 % of control | dose: 1000.0 mg/kg/injection, schedule: Q01DX001 (ip), vehicle: alkali diluted with saline 106 % of control
active: dose: 5.0 mg/kg/injection, schedule: Q#A X Z (ip), vehicle: alkali diluted with saline 158 % of control | dose: 10.0 mg/kg/injection, schedule: Q01DX Z (im), vehicle: alkali diluted with saline 163 % of control | dose: 15.0 mg/kg/injection, schedule: Q03DX006 (ip), vehicle: alkali diluted with saline 153 % of control
